Results on one compound are retold here after patent US20210113529A1, “MEDICINE FOR PREVENTING OR TREATING OPHTHALMIC DISEASE ASSOCIATED WITH ENHANCED INTRAOCULAR NEOVASCULARIZATION AND/OR INTRAOCULAR VASCULAR PERMEABILITY” (KYOTO UNIVERSITY, priority 2018, published 2021).

The test system of one assay is VEGF. The experiment in a line: VEGF production in CNV model (western blot of choroid-retinal pigment epithelium). Type of assay: in vivo, mice. The conditions noted are these: 0.3 mg/kg orally once daily, 5 days after laser irradiation. On the procedure: A CNV model generated by the same method as in Example 1 was orally administered Compound 1 suspended in a vehicle (0.5% MC solution) at a dose of 0.3 mg/kg (in terms of free form) once daily from the day before laser irradiation to the day of sampling. Controls were an untreated group (normal group) and a group administered only the vehicle (vehicle group). Experiments were performed using 6 mice in the Compound 1 administration group, 8 mice in the normal group, and 7 mice in the vehicle group. After 5 days from the laser irradiation, the mice were euthanized by cervical dislocation, and the eyeball was extirpated. Choroid-retinal pigment epithelium was isolated from the eyeball, and the expression amount of VEGF protein was measured by a western blot method using an anti-VEGF antibody (manufactured by Merck Millipore). In addition, the results of calculation of the expression amount of VEGF relative to that of β-actin with reference to the normal group are shown in FIG. 5(b).
(Immunoblotting shows a protein as a band on a membrane.)

The next assay deals with S1P3 receptor (Homo sapiens, UniProt Q99500). To be noted: GTP[γ35S] binding assay; report PLoS One, 2014; cited from earlier work.
Sequence of S1P3 receptor (Q99500 whole entry): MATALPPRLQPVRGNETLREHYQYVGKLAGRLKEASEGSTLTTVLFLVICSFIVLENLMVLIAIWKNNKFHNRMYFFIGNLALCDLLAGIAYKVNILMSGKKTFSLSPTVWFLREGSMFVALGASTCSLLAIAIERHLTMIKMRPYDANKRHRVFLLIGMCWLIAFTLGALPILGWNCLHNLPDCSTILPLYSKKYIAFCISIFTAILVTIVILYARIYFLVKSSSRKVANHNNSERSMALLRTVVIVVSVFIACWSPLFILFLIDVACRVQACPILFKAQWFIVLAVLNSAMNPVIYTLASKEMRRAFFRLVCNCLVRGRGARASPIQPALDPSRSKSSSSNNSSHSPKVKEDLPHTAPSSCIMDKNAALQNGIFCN
In assay [1] the test system is laser-induced choroidal neovascularization (CNV) model. The experiment in a line: Laser-induced CNV model: fluorescein angiography (FA) grade. The class given is in vivo, mice. To be noted: 0.03 mg/kg or 0.3 mg/kg orally once daily, each group; Day 14 after laser irradiation. The procedure: A Mydrin-P ophthalmic solution (Santen Pharmaceutical Co., Ltd., Mydrin is a trademark) was dropped into the right eye of 8-week-old mice (Japan SLC, Inc., C56BL/6J strain) to cause mydriasis. A solution obtained by diluting a 7:1 mixed anesthetic solution of ketamine and xylazine 10-fold with physiological saline was administered at 10 mL/kg into the femoral muscle. After that, a 0.1% Hyalein (trademark) ophthalmic solution (Santen Pharmaceutical Co., Ltd.) was dropped into the eye so as to prevent the eyeball from drying. […]
Sampling was performed on the 14th day after the laser irradiation. The mice were anesthetized with 10 mL/kg of a solution obtained by diluting a 7:1 mixed anesthetic solution of ketamine and xylazine 10-fold with physiological saline, and then 0.1 mL of a 10-fold dilution of fluorescein (Alcon Japan Ltd.) was administered into the tail vein of the mice, followed by fluorescence fundus photography using Micron 4 (Phoenix Research Laboratories, Inc. Pleasanton, Calif., USA).
In FIG. 1 (a), Day 0 indicates images taken on the day of the laser irradiation, and Day 14 indicates images taken on the 14th day. In addition, for the image of each group on Day 14, an FA grade was determined for each laser irradiation site in accordance with grade criteria shown in Table 1 to evaluate the leakage of a fluorescent dye from a neovascularization site. […]

The test system of assay [2] is retinal vein occlusion (RVO) model. The experiment in a line: RVO model, intravitreal administration: thickness of INL. Type of assay: in vivo, mice. To be noted: 0.8 ng, 8 ng or 80 ng per eye immediately after laser irradiation, 1 day after irradiation. On the procedure: Eight-week-old mice (Japan SLC, Inc., ddy strain) were anesthetized by intramuscularly administering 10 mL/kg of a mixed anesthetic solution diluted so as to contain ketamine (120 mg/kg) and xylazine (6 mg/kg). After that, 0.15 mL of rose bengal (20 mg/kg; WAKO) was administered into the tail vein, and a vein three head systems away from the optic nerve head of the right eye of the mice was irradiated with a laser to occlude a retinal vein. For the occlusion, the laser irradiation was performed 10 times to 15 times per vein. For the laser irradiation, an attachment of a fundus photography apparatus Micron 4 (Phoenix Research Laboratories, Inc., Pleasanton, Calif., USA) was used (wavelength: 532 nm, spot size: 50 μm, irradiation time: 5,000 ms, laser output: 50 mW). Three veins were occluded per eye, and it was confirmed with photographs of the fundus that the laser-irradiated veins had been completely occluded. […]
After 1 day from the laser irradiation, the mice were euthanized by cervical dislocation, the eyeball was extirpated, and histological evaluation was performed by a hematoxylin-eosin staining method. In addition, the thickness of the retinal inner nuclear layer (INL) was measured at intervals of 240 μm on both sides, i.e., ear side and nose side from the center of the optic nerve head. […]

As for `C[C@H](Oc1ccc(-c2nc(-c3ccc4[nH]cnc4c3)no2)cc1C(F)(F)F)C(F)(F)F.Cl` [Compound 1, 5-{5-[3-(trifluoromethyl)-4-{[(2S)-1,1,1-trifluoropropan-2-yl]oxy}phenyl]-1,2,4-oxadiazol-3-yl}-1H-benzimidazole monohydrochloride], in the assay with VEGF, the “expression of VEGF relative to β-actin, as compared to the vehicle group” value is recorded as “significantly reduced the expression of VEGF”. Besides, the “EC50 for S1P3 receptor agonist activity as compared to that for the S1P1 receptor” value at S1P3 receptor was at least 100 fold. In addition, the “FA grade as compared to the vehicle group” value in assay [1] is “significantly lowered”. For the same compound, in assay [2], the “thickening of the INL (retinal edema)” value was “ameliorated the thickening of the INL”.
